Data set [1] can be described thus: Cmax in mouse at 150 mg/kg, po. Format: ADME, organism-based. As to conditions: in vivo. Also on record: dose 150 mg/kg, route oral.
In a further data set the target is Histone deacetylase 1 (Homo sapiens, UniProt Q13547). Nature of the data set: Inhibition of HDAC1.
Data set [2] deals with HCT-116. Nature of the data set: Antiproliferative activity against human HCT116 cells after 72 hrs. Type of data set: functional. The following applies: HCT-116, 72 h.
Data set [3] can be described thus: AUC in mouse at 150 mg/kg, po. Format: ADME, organism-based, Plasma. Also on record: dose 150 mg/kg, route oral. The following applies: whole blood.
The test system of data set [4] is Mus musculus. Nature of the data set: Effect on histone H2B acetylation in human HCT116 cells xenografted in CD1 mouse assessed as change in ratio of acetylated to deacetylated histone level at 150 mg/kg, po QD for 3 days measured after 24 hrs. On the set-up: dose 150 mg/kg. The following applies: HCT-116. Type of data set: functional, organism-based. (In general: A xenograft is tissue or cells of one species grown in another, often human tumour cells in immunodeficient mice.)

Data set [5] concerns Mus musculus. Nature of the data set: Toxicity in human HCT116 cells xenografted CD1 mouse assessed as body weight loss at 100 mg/kg, po after 21 days. Type of data set: organism-based, HCT-116. Also on record: dose 100 mg/kg, route oral. The following applies: in vivo, 504 h.
Data set [6] concerns HCT-116. The experiment in a line: Antitumor activity against human HCT116 cells xenografted in po dosed mouse assessed as reduction in tumor growth dosed daily for 21 days. Type of data set: functional, organism-based.
Data set [7] in a line: Plasma concentration in ip dosed nude CD-1 mouse after 3 hrs.
A short description of data set [8]: Volume of distribution at steady state in Sprague-Dawley rat. Type of data set: ADME, organism-based. The following applies: in vivo, read-out: Vdss.
The nature of data set [9]: Half life in Swiss-Webster mouse. Type of data set: ADME, organism-based. As to conditions: in vivo.
Data set [10] is described as follows: Clearance in Sprague-Dawley rat plasma. Type of data set: ADME, organism-based.
Data set [11] is described as follows: AUC (0 to infinity) in Beagle dog. Format: ADME, organism-based, Canis lupus familiaris. On the set-up: time infinity. As to conditions: plasma.
The nature of data set [12]: Volume of distribution at steady state in Beagle dog. Format: ADME, organism-based, Canis lupus familiaris. As to conditions: in vivo, read-out: Vdss.
The nature of data set [13]: Oral bioavailability in Sprague-Dawley rat. Type of data set: ADME, organism-based. As to conditions: in vivo.
Data set [14] is described as follows: Half life in Sprague-Dawley rat. Format: ADME, organism-based. As to conditions: in vivo.
Data set [15] is described as follows: Half life in Beagle dog. Type of data set: ADME, organism-based, Canis lupus familiaris. The following applies: in vivo.
The nature of data set [16]: AUC (0 to infinity) in po dosed Sprague-Dawley rat. Type of data set: ADME, organism-based. On the set-up: time infinity, route oral. The following applies: plasma.
Data set [17] in a line: Volume of distribution at steady state in Swiss-Webster mouse. Format: ADME, organism-based. The following applies: in vivo, read-out: Vdss.
Data set [18] can be described thus: AUC (0 to infinity) in Swiss-Webster mouse. Type of data set: ADME, organism-based. Also on record: time infinity. The following applies: plasma.

Structures are written as SMILES. pIC50: −log10 of the molar value. Active and inactive are the calls of the source. A value given as a limit tells only on which side of the number the result lay.

Sequence of Histone deacetylase 1 (Q13547 whole entry): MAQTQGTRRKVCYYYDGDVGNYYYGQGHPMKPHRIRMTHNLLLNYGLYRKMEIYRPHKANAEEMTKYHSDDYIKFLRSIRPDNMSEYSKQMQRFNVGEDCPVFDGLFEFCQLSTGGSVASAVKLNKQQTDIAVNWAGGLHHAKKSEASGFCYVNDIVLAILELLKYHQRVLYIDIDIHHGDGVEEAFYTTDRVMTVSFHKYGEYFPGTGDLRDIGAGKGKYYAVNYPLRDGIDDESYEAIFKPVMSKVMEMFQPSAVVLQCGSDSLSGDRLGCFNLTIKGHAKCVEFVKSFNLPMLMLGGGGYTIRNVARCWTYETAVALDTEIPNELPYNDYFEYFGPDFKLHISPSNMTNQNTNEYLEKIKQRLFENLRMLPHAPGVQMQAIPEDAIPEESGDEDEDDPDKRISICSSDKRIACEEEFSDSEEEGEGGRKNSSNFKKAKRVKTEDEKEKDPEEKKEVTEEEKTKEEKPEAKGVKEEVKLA

Consider `CP(=O)(Cc1ccc(C(=O)Nc2cc(-c3cccs3)ccc2N)cc1)OCc1cccnc1` (stereo not drawn), for which the Cmax (commonly the peak of the concentration-time curve) in data set [1] was 8.8 µM. Also, on Histone deacetylase 1, the pIC50 (commonly the IC50 on a negative log10 scale, so that one unit is a factor of ten) was 8.46. The GI50 (in general, the concentration at which growth is held to half of that of the control) in the data set with HCT-116 [2] turned out to be 130 nM. Further, in data set [3], the AUC (commonly the area under the concentration-time curve, a measure of exposure) turned out to be 16 µM·h.

Turning to `CCOP(=O)(O)Cc1ccc(C(=O)Nc2cc(-c3cccs3)ccc2N)cc1`, the pIC50 against Histone deacetylase 1 is 7.42. Further, the GI50 in the data set on HCT-116 [2] is over 20000 nM.

For the compound `CC(C)P(=O)(Cc1ccc(C(=O)Nc2cc(-c3cccs3)ccc2N)cc1)C(C)C`, the highest level in [1] (Cmax) was 1.9 µM. For the same compound, at Histone deacetylase 1, the pIC50 was 7.96. Moreover, the GI50 in the data set with HCT-116 [2] was 270 nM. In data set [3], the AUC stood at 1.3 µM·h.

`CCOP(=O)(O)c1ccc(C(=O)Nc2cc(-c3cccs3)ccc2N)cc1` gave a pIC50 on Histone deacetylase 1 of 7.38. Moreover, the GI50 with HCT-116 [2] was over 20000 nM.

At Histone deacetylase 1, `CCP(=O)(Cc1ccc(C(=O)Nc2cc(-c3cccs3)ccc2N)cc1)OC` (stereo not drawn) showed a pIC50 of 8.15. The compound further registered a GI50 in the data set on HCT-116 [2] of 130 nM.

Regarding `COP(=O)(Cc1cccc(C(=O)Nc2cc(-c3cccs3)ccc2N)c1)c1ccccc1` (stereo not drawn), at Histone deacetylase 1, the pIC50 was 6.85. Further, growth in the data set with HCT-116 [2] was halved (GI50) at 8600 nM.

`COP(C)(=O)c1ccc(C(=O)Nc2cc(-c3cccs3)ccc2N)cc1` (stereo not drawn): the Cmax in data set [1] was determined as 39 µM. The compound also had a pIC50 at Histone deacetylase 1 of 7.28. This compound came in with a GI50 in the data set on HCT-116 [2] of 420 nM. For the same compound, the AUC in data set [3] came out at 60 µM·h.

`CCOP(C)(=O)c1ccc(C(=O)Nc2cc(-c3cccs3)ccc2N)cc1` (stereo not drawn) returned a Cmax in data set [1] of 43 µM. The pIC50 against Histone deacetylase 1 was 7.85. Further, halving of growth with HCT-116 [2] (GI50) required 460 nM. In addition, the AUC in [3] turned out to be 44 µM·h.

For the compound `COP(=O)(Cc1ccc(C(=O)Nc2cc(-c3cccs3)ccc2N)cc1)c1ccccc1` (stereo not drawn), on Histone deacetylase 1, the pIC50 is 7.70. This compound registered a GI50 with HCT-116 [2] of 360 nM.

`COP(=O)(c1ccccc1)c1ccc(C(=O)Nc2cc(-c3cccs3)ccc2N)cc1` (stereo not drawn) returned a Cmax in [1] of 11 µM. At Histone deacetylase 1, the pIC50 is 7.54. The 50% growth inhibitory concentration (GI50) in the data set on HCT-116 [2] was determined as 380 nM. In [3], this compound showed an AUC of 12 µM·h.

Turning to `CCOP(=O)(CC)Cc1ccc(C(=O)Nc2cc(-c3cccs3)ccc2N)cc1` (stereo not drawn), the Cmax in [1] is 17 µM. At Histone deacetylase 1, this compound gave a pIC50 of 8.19. Further, the GI50 in the data set with HCT-116 [2] turned out to be 240 nM. The AUC in [3] was determined as 17 µM·h.

On to `COP(C)(=O)Cc1ccc(C(=O)Nc2cc(-c3cccs3)ccc2N)cc1` (stereo not drawn), for which the result with Mus musculus [4] was Active. Besides, the peak level in data set [1] (Cmax) was 88 µM. The pIC50 on Histone deacetylase 1 was 7.27. In the data set on HCT-116 [2], this compound yielded a GI50 of 160 nM. In [3], this compound displayed an AUC of 115 µM·h. The figures for the Activity with Mus musculus [5] and in the data set with HCT-116 [6] were 22% and “Dose-dependent effect”, respectively.

On Histone deacetylase 1, `CCOP(=O)(OCC)c1ccc(C(=O)Nc2cc(-c3cccs3)ccc2N)cc1` gave a pIC50 of 7.66. In addition, in the data set on HCT-116 [2], the GI50 is 410 nM.

As to `Nc1ccc(-c2cccs2)cc1NC(=O)c1ccc(CP(=O)(O)c2ccccc2)cc1`, the pIC50 against Histone deacetylase 1 is 7.55. The compound also came in with a GI50 in the data set with HCT-116 [2] of over 20000 nM.

`CCOP(=O)(Cc1cccc(C(=O)Nc2cc(-c3cccs3)ccc2N)c1)OCC` gave a pIC50 on Histone deacetylase 1 of 7.64. In the data set on HCT-116 [2], the GI50 came out at 2500 nM.

Turning to `CCOP(C)(=O)Cc1ccc(C(=O)Nc2cc(-c3cccs3)ccc2N)cc1` (stereo not drawn), the result in the data set on Mus musculus [4] was inactive. The compound also registered a Cmax in [1] of 31 µM. This compound showed a pIC50 at Histone deacetylase 1 of 7.80. This compound had a GI50 in the data set with HCT-116 [2] of 330 nM. The AUC in [3] is 50 µM·h.

In data set [1], `CCP(=O)(CC)Cc1ccc(C(=O)Nc2cc(-c3cccs3)ccc2N)cc1` had a Cmax of 14 µM. This compound also gave a pIC50 on Histone deacetylase 1 of 8.05. The same compound returned a GI50 in the data set on HCT-116 [2] of 200 nM. In [3], this compound returned an AUC of 17 µM·h.

With `CCOP(=O)(Cc1ccc(C(=O)Nc2cc(-c3cccs3)ccc2N)cc1)OCC`, the concentration at 3 h in [7] turned out to be 1.54 µM. Moreover, the Vd in [8] is 7.27 L/kg; in data set [12], 2.85 L/kg; in data set [17], 20.1 L/kg. For the same compound, the half-life (in general, the time needed for the level to fall by half in the phase considered) in data set [9] was 55 h; in [14], 5.5 h; in [15], 0.43 h. Moreover, the clearance (as a rule, a measure of how efficiently the substance is removed, as volume per time) in data set [10] was determined as 15.8 mL/min/kg. Besides, the pIC50 on Histone deacetylase 1 is 7.89. The AUC(0-inf) (commonly the area under the concentration-time curve extrapolated to infinity) in [11] is 0.25 µM·h; in data set [16], 4.4 µM·h; in data set [18], 0.17 µM·h. Further, in the data set on HCT-116 [2], the 50% growth inhibitory concentration (GI50) was 250 nM. In addition, the bioavailability – broadly, the share of a dose that reaches the circulation, judged against a reference dose that is usually intravenous – in data set [13] turned out to be 45%.

For `CCP(=O)(CC)Cc1cccc(C(=O)Nc2cc(-c3cccs3)ccc2N)c1`, the pIC50 against Histone deacetylase 1 is 6.57. The compound further yielded a GI50 in the data set on HCT-116 [2] of over 20000 nM.

With `CCOP(=O)(c1ccccc1)c1ccc(C(=O)Nc2cc(-c3cccs3)ccc2N)cc1` (stereo not drawn), the Cmax in data set [1] turned out to be 0.56 µM. In addition, the pIC50 on Histone deacetylase 1 is 7.68. Besides, in the data set with HCT-116 [2], growth was halved (GI50) at 170 nM. Besides, in data set [3], the AUC came out at 0.91 µM·h.

On to `CCP(=O)(Cc1cccc(C(=O)Nc2cc(-c3cccs3)ccc2N)c1)OC` (stereo not drawn), for which, on Histone deacetylase 1, the pIC50 is 7.05. Further, halving of growth in the data set with HCT-116 [2] (GI50) required 6000 nM.
